Measured values as given in patent publication EP0212479A1, “Use of lactam amides as efficiency improvers in animals” (BAYER AG, priority 1985, dated 1987).

assay: Rat feeding trial (Ratten-Fütterungsversuch), growth promotion; format: in vivo, Laborratten vom Typ SPF Wistar; conditions: female rats 90-110 g, active substance in feed ad lib, Dosis 25 ppm, 13-day trial, weight gain relative to Kontrolle = 100
Description: Weibliche Laborratten 90-110 g schwer vom Typ SPF Wistar tZüchtung Hagemann) werden ad lib mit Standard Rattenfutter, das mit der gewünschten Menge Wirkstoff versetzt ist, gefüttert. Jeder Versuchsansatz wird mit Futter der identischen Charge durchgeführt, so daß Unterschiede in der Zusammensetzung des Futters die Vergleichbarkeit der Ergebnisse nicht beeinträchtigen können.
Die Ratten erhalten Wasser ad lib.
Jeweils 12 Ratten bilden eine Versuchsgruppe und werden mit Futter, das mit der gewünschten Menge Wirkstoff versetzt ist gefüttert. Eine Kontrollgruppe erhält Futter ohne Wirkstoff. Das durchschnittliche Körpergewicht sowie die Streuung in den Körpergewichten der Ratten ist in jeder Versuchsgruppe gleich, so daß eine Vergleichbarkeit der Versuchsgruppen untereinander gewährleistet ist.
Während des 13-tägigen Versuchs werden Gewichtszunahme und Futterverbrauch bestimmt.
Es werden die aus der Tabelle ersichtlichen Ergebnisse erhalten: […]

SMILES	Zuwachs
FC(F)(F)c1cccc(CNC2=NCCCCC2)c1 [Beispiel 13, 2-(3-Trifluormethyl-benzylamino)-tetrahydroazepin]	112
CC(C)c1ccc(C(F)(F)F)cc1CNC1=NCCCCC1 [Beispiel 9]	104
FC(F)(F)c1cccc(CNC2=NCCCCC2)c1 [14 (Maleinat)]	117
FC(F)(F)c1ccc(CNC2=NCCCCC2)cc1 [Beispiel 3]	107
CC(NC1=NCCCCC1)c1cccc(C(F)(F)F)c1 (stereo not drawn) [Beispiel 1]	111
FC(F)(F)c1ccccc1CNC1=NCCCCC1 [Beispiel 10]	107
